Data set [1] deals with A2AR. Particulars: cited from earlier work.
In data set [2] the target is neurotensin receptor (NTSR1). More on the design: method as in PMID 23051748. Particulars: read-out: EC50 for the allosteric effect of Na+ on NTSR1; cited from earlier work.
The target in data set [3] is β1AR (Meleagris gallopavo, UniProt P07700). As to the method:
For the thermostability assay for the ligand-free receptor, 1–2.5 mg of E. coli-expressed membrane protein was solubilised for 30 min on ice with 1% DDM and insoluble material was removed by centrifugation (5 min, 20,000 g). Samples were then adjusted to give the desired concentration of NaCl or choline chloride. Thermostability was measured by incubating the sample at the specified temperature for 30 min; reactions were placed on ice, and ^3H-DHA was added (50 nM final concentration) and equilibrated (2 h, 4°C). Receptor-bound and free radioligand were separated by spin gel filtration assays as described previously. Nonspecific binding was determined in the presence of 1 mM alprenolol. Radioactivity was counted on a MicroBeta TriLux scintillation counter (Perkin Elmer), and data were analyzed by nonlinear regression using Prism software (GraphPad).
Figure 4 Thermostability of β1AR mutants.

The values that follow come from publication PMC3963952, “The 2.1 Å Resolution Structure of Cyanopindolol-Bound β1-Adrenoceptor Identifies an Intramembrane Na^+ Ion that Stabilises the Ligand-Free Receptor” (PLoS ONE, 2014).

Structures are written as SMILES.

Sequence of β1AR (P07700 whole entry): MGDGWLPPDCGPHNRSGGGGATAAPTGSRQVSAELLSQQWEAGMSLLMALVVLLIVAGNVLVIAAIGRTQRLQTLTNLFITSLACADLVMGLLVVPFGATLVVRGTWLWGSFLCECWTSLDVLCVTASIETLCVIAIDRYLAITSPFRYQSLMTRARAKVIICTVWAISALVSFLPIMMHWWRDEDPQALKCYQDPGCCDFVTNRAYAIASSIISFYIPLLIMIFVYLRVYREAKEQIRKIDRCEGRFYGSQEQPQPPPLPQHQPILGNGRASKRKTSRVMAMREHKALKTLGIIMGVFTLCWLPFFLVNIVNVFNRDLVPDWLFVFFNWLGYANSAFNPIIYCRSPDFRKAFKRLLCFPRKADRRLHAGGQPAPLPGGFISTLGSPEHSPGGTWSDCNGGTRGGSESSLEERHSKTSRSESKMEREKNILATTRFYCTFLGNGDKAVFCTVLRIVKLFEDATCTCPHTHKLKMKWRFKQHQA

Usually EC50 stands for the concentration needed to bring the measured effect to its halfway point. As a reminder, the Kd is the equilibrium constant for the complex coming apart. As for `[Cl-].[Na+]` [Na^+], the EC50 in data set [1] (also calculated from data in ref 21, read-out: EC50 for the allosteric effect of Na+ on A2AR) was 40 to 48 mM; in data set [2], 43 mM. The Kd in data set [1] (no reference given, read-out: KD of Na+ binding to A2AR) is 40 to 50 mM. In addition, the “decrease of β1AR thermostability in the absence of Na+” value in data set [3] (ligand-free β1AR, 150 mM NaCl versus 150 mM choline chloride) was 7.5 °C.
Regarding `C[N+](C)(C)CCO.[Cl-]` [choline chloride], the “apparent Tm of dodecylmaltoside-solubilised ligand-free β1AR” value in data set [3] (in 150 mM of the named salt, heated 30 min, ±SEM) came to 19.1±0.6 °C.
